According to patent US20230031406A1, “COMPOUNDS AND COMPOSITIONS FOR TREATING CONDITIONS ASSOCIATED WITH NLRP ACTIVITY” (Novartis AG, priority 2018, published 2023):

Key:
[1] = system: PMA-differentiated THP-1 cells; experiment: hTHP-1 assay containing 10% fetal bovine serum (IL-1β production, Tables B5 and B6); type: cell-based, human; conditions: read-out: hTHP-1 IC50 in 10% FBS, hTHP-1 assay containing 10% fetal bovine serum, Table B5
Method: The following protocol is suitable for testing the activity of the compounds disclosed herein. Procedure 1: IL-1β Production in PMA-Differentiated THP-1 Cells Stimulated with Gramicidin.
THP-1 cells were purchased from the American Type Culture Collection and sub-cultured according to instructions from the supplier. Cells were cultured in complete RPMI 1640 (containing 10% heat inactivated FBS, penicillin (100 units/ml) and streptomycin (100 μg/ml)), and maintained in log phase prior to experimental setup. Prior to the experiment, compounds were dissolved in dimethyl sulfoxide (DMSO) to generate a 30 mM stock. The compound stock was first pre-diluted in DMSO to 3, 0.34, 0.042 and 0.0083 mM intermediate concentrations and subsequently spotted using Echo550 liquid handler into an empty 384-well assay plate to achieve desired final concentration (e.g. 100, 33, 11, 3.7, 1.2, 0.41, 0.14, 0.046, 0.015, 0.0051, 0.0017 μM). DMSO was backfilled in the plate to achieve a final DMSO assay concentration of 0.37%. The plate was then sealed and stored at room temperature until required.
THP-1 cells were treated with PMA (Phorbol 12-myristate 13-acetate) (20 ng/ml) for 16-18 hours. On the day of the experiment the media was removed and adherent cells were detached with trypsin for 5 minutes. […] The cells were plated in the 384-well assay plate containing the spotted compounds at a density of 50,000 cells/well (final assay volume 50 μl). Cells were incubated with compounds for 1 hour and then stimulated with gramicidin (5 μM) (Enzo) for 2 hours. Plates were then centrifuged at 340 g for 5 min. Cell free supernatant (40 μL) was collected using a 96—CHannel PlateMaster (Gilson) and the production of IL-1β was evaluated by HTRF (cisbio). The plates were incubated for 18 h at 4° C. and read using the preset HTRF program (donor emission at 620 nm, acceptor emission at 668 nm) of the SpectraMax i3x spectrophotometer (Molecular Devices, software SoftMax 6). A vehicle only control and a dose titration of CRID3 (100-0.0017 μM) were run concurrently with each experiment.
Procedure 2: IL-1β Production in PMA-Differentiated THP-1 Cells Stimulated with Gramicidin.
THP-1 cells were purchased from the American Type Culture Collection and sub-cultured according to instructions from the supplier. Prior to experiments, cells were cultured in complete RPMI 1640 (containing 10% heat inactivated FBS, penicillin (100 units/ml) and streptomycin (100 μg/ml)), and maintained in log phase prior to experimental setup. Prior to the experiment THP-1 were treated with PMA (Phorbol 12-myristate 13-acetate) (20 ng/ml) for 16-18 hours. Compounds were dissolved in dimethyl sulfoxide (DMSO) to generate a 30mM stock. On the day of the experiment the media was removed and adherent cells were detached with trypsin for 5 minutes. […] The cells were plated in a 384-well plate at a density of 50,000 cells/well (final assay volume […]). Compounds were first dissolved in assay medium to obtain a 5× top concentration of 500 μM. 10 step dilutions (1:3) were then undertaken in assay medium containing 1.67% DMSO. 5× compound solutions were added to the culture medium to achieve desired final concentration (e.g. 100, 33, 11, 3.7, 1.2, 0.41, 0.14, 0.046, 0.015, 0.0051, 0.0017 μM). Final DMSO concentration was at 0.37%. Cells were incubated with compounds for 1 hour and then stimulated with gramicidin (5 μM) (Enzo) for 2 hours. Plates were then centrifuged at 340 g for 5 min. Cell free supernatant (40 μL) was collected using a 96—CHannel PlateMaster (Gilson) and the production of IL-1β was evaluated by HTRF (cisbio). A vehicle only control and a dose titration of CRID3 (100-0.0017 μM) were run concurrently with each experiment.
Tables B1, B2, B3, and B4 show the biological activity of compounds in hTHP-1 assay containing 2% fetal bovine serum. […] Key: <0.008 μM=“++++++”; ≥0.008 and <0.04 μM=“+++++”; >0.04 and <0.2 μM=“++++”; ≥0.2 and <1 μM=“+++”; ≥1 and <5 μM=“++”; ≥5 and <30 μM=“+”. […]

[2] = system: PMA-differentiated THP-1 cells; experiment: IL-1β production in PMA-differentiated THP-1 cells stimulated with gramicidin (hTHP-1 assay containing 2% fetal bovine serum; Procedures 1 and 2); type: cell-based, human; conditions: 2% fetal bovine serum
How it was run: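 PMA 20 ng/ml 16-18 h → trypsinise → 50,000 cells/well, RPMI/2% FBS; cpd 1 h (11-pt, 100–0.0017 μM; DMSO 0.37%); gramicidin 5 μM, 2 h; spin; supernatant IL-1β via HTRF.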

[3] = Homo sapiens, THP-1, Table B4, class symbols, read-out: hTHP-1 IC50
[4] = Homo sapiens, THP-1, Table B3, hTHP-1 assay, numeric values, read-out: IC50

| IC50 [2, 3] [µM] | SMILES | further results |
| --- | --- | --- |
| 0.2 to 1 | CC(C)n1cc(F)c(S(N)(=O)=NC(=O)Nc2c3c(nc4c2CCC4)CCC3)n1 (stereo not drawn) [Example 750, 4-Fluoro-N′-((1,2,3,5,6,7-hexahydrodicyclopenta[b,e]pyridin-8-yl)carbamoyl)-1-isopropyl-1H-pyrazole-3-sulfomidamide] |  |
| 0.2 to 1 | CC1(C)CCc2c1nc1c(c2NC(=O)N=S(N)(=O)c2cnc(C(O)CO)s2)CCC1 (stereo not drawn) [Example 753, 2-(1,2-Dihydroxyethyl)-N′-((3,3-dimethyl-1,2,3,5,6,7-hexahydrodicyclopenta[b,e]pyridin-8-yl)carbamoyl) thiazole-5-sulfonimidamide] |  |

Further lines, the compound ahead of its results:

| SMILES | IC50 [2, 3] [µM] | further results |
| --- | --- | --- |
| Cc1c(C(F)(F)F)nc2c(c1NC(=O)N=S(N)(=O)c1nn(C(C)(F)F)cc1F)CCC2 (single isomer, unassigned) [Compound 1004a, (R) or (S)-1-(1,1-Difluoroethyl)-4-fluoro-N′-((3-methyl-2-(trifluoromethyl)-6,7-dihydro-5H-cyclopenta[b]pyridin-4-yl)carbamoyl)-1H-pyrazole-3-sulfonimidamide] |  | IC50 ([1]; listed as 832): 0.04 to 0.2 µM |
| Cc1c(C(F)(F)F)nc2c(c1NC(=O)N=S(N)(=O)c1nn(C(C)(F)F)cc1F)CCC2 (single isomer, unassigned) [Compound 1004b, (S) or (R)-1-(1,1-Difluoroethyl)-4-fluoro-N′-((3-methyl-2-(trifluoromethyl)-6,7-dihydro-5H-cyclopenta[b]pyridin-4-yl)carbamoyl)-1H-pyrazole-3-sulfonimidamide] |  | IC50 ([1]; listed as 833): 1 to 5 µM |
| Cc1c(C(F)(F)F)nc2c(c1NC(=O)N=S(N)(=O)c1cnc(C(F)F)s1)CCC2 (single isomer, unassigned) [Compound 1007a, (R) or (S)-2-(Difluoromethyl)-N′-((3-methyl-2-(trifluoromethyl)-6,7-dihydro-5H-cyclopenta[b]pyridin-4-yl)carbamoyl)thiazole-5-sulfonimidamide] |  | IC50 ([1]; listed as 829): 1 to 5 µM |
| Cc1c(C(F)(F)F)nc2c(c1NC(=O)N=S(N)(=O)c1cnc(C(F)F)s1)CCC2 (single isomer, unassigned) [Compound 1007b, (S) or (R)-2-(Difluoromethyl)-N′-((3-methyl-2-(trifluoromethyl)-6,7-dihydro-5H-cyclopenta[b]pyridin-4-yl)carbamoyl)thiazole-5-sulfonimidamide] |  | IC50 ([1]; listed as 828): 5 to 30 µM |
| CCn1cc(F)c(S(N)(=O)=NC(=O)Nc2c3c(nc(C(F)(F)F)c2C2CC2)CCC3)n1 (stereo not drawn) [Example 744, N′-((3-cyclopropyl-2-(trifluoromethyl)-6,7-dihydro-5H-cyclopenta[b]pyridin-4-yl)carbamoyl)-1-ethyl-4-fluoro-1H-pyrazole-3-sulfonimidamide] | 0.04 to 0.2 |  |
| CCn1cc(F)c(S(N)(=O)=NC(=O)Nc2c(-c3ccccc3)cnc3c2CCC3)n1 (stereo not drawn) [Example 745, 1-Ethyl-4-fluoro-N′-((3-phenyl-6,7-dihydro-5H-cyclopenta[b]pyridin-4-yl)carbamoyl)-1H-pyrazole-3-sulfonimidamide] | 1 to 5 |  |
| CCn1cc(F)c(S(N)(=O)=NC(=O)Nc2c3c(nc(C(F)(F)F)c2-c2ccccc2F)CCC3)n1 (stereo not drawn) [Example 746, 1-Ethyl-4-fluoro-N′-((3-(2-fluorophenyl)-2-(trifluoromethyl)-6,7-dihydro-5H-cyclopenta[b]pyridin-4-yl)carbamoyl)-1H-pyrazole-3-sulfonimidamide] | 0.008 to 0.04 |  |
| CCn1cc(F)c(S(N)(=O)=NC(=O)Nc2c3c(nc(C(F)(F)F)c2-c2cccc(F)c2)CCC3)n1 (stereo not drawn) [Example 747, 1-Ethyl-4-fluoro-N′-((3-(3-fluorophenyl)-2-(trifluoromethyl)-6,7-dihydro-5H-cyclopenta[b]pyridin-4-yl)cathamoyl)-1H-pyrazole-3-sulfonimidamide] |  | IC50 ([2]; Table B4, class symbols, read-out: hTHP-1 IC50): 0.008 to 0.04 µM |
| C[C@@H]1CCc2c1nc1c(c2NC(=O)N=S(N)(=O)c2nn(-c3ccccc3)cc2F)CCC1 (stereo partly drawn) [Example 748, 4-Fluoro-N′-(((R)-3-methyl-1,2,3,5,6,7-hexahydrodicyclopenta [b, e]pyridin-8-yl)carbamoyl)-1-phenyl-1H-pyrazole-3-sulfonimidamide] | 0.2 to 1 |  |
| Cc1c(C(F)(F)F)nc2c(c1NC(=O)N=S(N)(=O)c1nn(-c3ccccc3)cc1F)CCC2 (stereo not drawn) [Example 749, 4-Fluoro-N′-((3-methyl-2-(trifluoromethyl)-6,7-dihydro-5H-cyclopenta[b]pyridin-4-yl)carbamoyl)-1-phenyl-1H-pyrazole-3-sulfonimidamide] | 1 to 5 |  |
| CN(C)C(=O)c1ncc(S(N)(=O)=NC(=O)Nc2c3c(nc4c2CCC4(C)C)CCC3)s1 (stereo not drawn) [Example 751, 5-(N′-((3,3-dimethyl-1,2,3,5,6,7-hexahydrodicyclopenta[b,e]pyridin-8-yl)carbamoyl)sulfamidimidoyl)-N,N-dimethyl-thiazole-2-carboxamide] | 1 to 5 |  |
| CC1CCc2c1nc1c(c2NC(=O)N=S(N)(=O)c2cnc(C(O)CO)s2)CCC1 (stereo not drawn) [Example 752, 2-(1,2-Dihydroxyethyl)-N′-((3-methyl-1,2,3,5,6,7-hexahydrodicyclopenta[b,e]pyridin-8-yl)carbamoyl) thiazole-5-sulfonimidamide] | 1 to 5 |  |
| CC(O)c1csc([S@@](N)(=O)=NC(=O)Nc2c3c(nc4c2CC[C@H]4C)CCC3)c1 (stereo partly drawn) [compound 583, (S)-4-(1-hydroxyethyl)-N′-(((R)-3-methyl-1,2,3,5,6,7-hexahydrodicyclopenta[b,e]pyridin-8-yl)carbamoyl)thiophene-2-sulfonimidamide] |  | IC50 ([2]; Homo sapiens, THP-1, Table B3, hTHP-1 assay, class symbols, read-out: IC50): 1 to 5 µM |
| CN(C)Cc1nc(C(C)(C)O)sc1S(N)(=O)=NC(=O)Nc1c2c(nc3c1CCC3(C)C)CCC2 (stereo not drawn) [compound 592, N′-((3,3-dimethyl-1,2,3,5,6,7-hexahydrodicyclopenta[b,e]pyridin-8-yl)carbamoyl)-4-((dimethylamino)methyl)-2-(2-hydroxypropan-2-yl)thiazole-5-sulfonimidamide] |  | IC50 [2, 4]: > 30 µM |
| CC(C)(O)c1ncc(S(N)(=O)=NC(=O)Nc2c3c(nc4c2CCC4=O)CCC3)s1 (stereo not drawn) [compound 593, 2-(2-Hydroxypropan-2-yl)-N′-((3-oxo-1,2,3,5,6,7-hexahydrodicyclopenta[b,e]pyridin-8-yl)carbamoyl)thiazole-5-sulfonimidamide] |  | IC50 [2, 4]: > 30 µM |
| CCn1ncc(F)c1S(N)(=O)=NC(=O)Nc1c(C)c(C(F)(F)F)nc2c1CCC2 (stereo not drawn) [compound 754, 1-Ethyl-4-fluoro-N′-((3-methyl-2-(trifluoromethyl)-6,7-dihydro-5H-cyclopenta[b]pyridin-4-yl)carbamoyl)-1H-pyrazole-5-sulfonimidamide] | 1 to 5 |  |
